Test results: patent US20030087830A1, “Low molecular weight components of cartilage, complexes of metals with amino acids, DI-peptides and analogs thereof; processes for preparation and therapeutic uses thereof” (priority 2001, published 2003)

What was measured:
[1] = test system: Endothelial cells (HUVEC, BAEC); experiment: Endothelial cell proliferation; type: cell-based, human / bovine; settings: for EC50: 48 hours, copper equivalent, NA = less than 50% at 1.25 mM copper equivalent, read-out: EC proliferation (EC50 mM)
Protocol: Endothelial and tumor cell proliferation assays were performed to determine the ability of test samples to inhibit endothelial cell proliferation (antiangiogenic activity), normal cell proliferation,and tumor cell proliferation.
Endothelial cells (Human umbilical vein endothelial cells (HUVEC), bovine aortic endothelial cells (BAEC)), skeletal muscle cells, human dermal fibroblasts (all from Clonetics, Walkersville, Md.) were respectively maintained in EBM-2, MDEM, SKGM and FGFM-2 complete media according to manufacturer's instructions. Tumor rat glioblastoma cell line (C6) was maintained in DMEM (Sigma, Oaksville, Ontario) supplemented with 10% fetal calf serum (FCS) and antibiotics in 5% CO2. Briefly, cells seeded in 96-well sterile tissue culture dishes were treated with increasing concentrations of different test samples for a period of 48 hours at 37° C. Cell number was then evaluated by a calorimetric assay using the cell proliferation reagent tetrazolium salt and the fluorimetric assay using DNA dye (Hoescht) according to the procedure established by the manufacturer (Boehringer Mannhein). The conversion of these tetrazolium salts into formazan occurs only in metabolically active cells. The percentage of cell inhibition was determined by comparison to untreated cells.
(§1) According to the endothelial cell proliferation assay, the relative effectiveness of two compounds is compared by reference to the EC50 thereof. The EC50 is the concentration of compound at which the number of endothelial cells is reduced by 50% as compared to control. The efficacy of the test samples in EVT is established by the percent of eggs with altered angiogenesis at a given inhibitor dose of 0.6 mg of copper equivalent (see FIG. 6 for examples). A comparison of the antiangiogenic activity of the compounds of the present invention with divalent metal salts (CuCl2, MgCl2, ZnCl2, CoCl2) and uncoupled alpha-amino acids, alpha-imino acids, dipeptides, and nitrogenated molecules comprising a carboxylic acid group, such as creatine, is provided to illustrate that the formation of the amino acid-copper complex gives rise to complexes having antiangiogenic activity.

[2] = test system: blood vessel formation in the vitelline membrane of chick embryo; experiment: Embryonic Vascularization Test (EVT); type: in vivo; settings: for EVT activity (in words): in vivo; for EVT (% of inhibition): activity at 0.6 mg equivalent Copper
Protocol: The Embryonic Vascularization Test (EVT) was performed to determine the ability of test samples to inhibit the formation of new blood vessels (antiangiogenic activity).
The normal development of a chick embryo involves the formation of an external vascular system located in the vitelline membrane which carries nutrients from the vitellus (yolk) to the developing embryo. When placed onto the vitelline membrane, antiangiogenic substances can inhibit the blood vessel formation that occurs in the vitelline membrane. Briefly, methylcellulose discs (an inert solid and transparent matrix) containing different test samples were placed on the external border of the vascular perimeter of the vitelline membrane, where the angiogenic process occurs. Vascularization was assessed 24 hours after disc deposition, and results were expressed as the percent of embryos in which blood vessel formation was affected. The blood vessel formation was considered affected when its growing path was either deviated, or diminished or when there was no growth observed beyond the disc as compared to the negative control. The results are expressed as 0, +, and ++ where 0 is for a lower response than 25 percent of the eggs; + is for a response between 25 and 50 percent; and ++ is for an antiangiogenic response observed in more than 50 percent of the eggs.
as §1

Endothelial cells = experiment: Endothelial cell tubule formation assay (tubulogenesis); type: cell-based; set-up: key to Tubulogenesis: 0: Numerous capillary-like tube forming pentagonal network; +: Decrease of capillary-like tubes; ++: Dramatic decrease of capillary-like tubes; +++: Absence of capillary-like tubes; settings: 2.5 mM free (not complexed) ligand
Protocol: The endothelial cell tubule formation assay is a semi-quantitative assay that was performed to determine the ability of test samples to inhibit this multi-step process, which involves cell adhesion, migration, differentiation and growth, using a commercial kit (Chemicon). Briefly, endothelial cells were seeded on solid gel of Ecmatrix™ (Chemicon), basement proteins prepared from the Engelbreth Holm-Swarm (EHS) mouse tumor in microplate in a E-99 media (Sigma) supplemented with 5% FBS and VEGF (50 ng/ml) in the presence or absence of the test sample. Cells were incubated for a period of 24 hours at 37° C. Pictures were taken on the entire tissue culture dish using a binocular microscope for further evaluation.

[3] = test system: bFGF-stimulated blood vessel formation in Matrigel; experiment: Matrigel in vivo angiogenesis assay; set-up: species or system C57B1/6 mice; settings: intra-peritoneal daily 10 days
Protocol: The Matrigel™ in vivo assay was performed to determine the ability of test samples to inhibit blood vessel formation (antiangiogenic activity) and to establish their bioavailability in vivo.
Briefly, liquid Matrigel™ (Becton Dickinson, Bedford, Mass.) was maintained at 4° C. and mixed thoroughly for at least 3 hours with 1,500 ng/ml basic fibroblast growth factor (bFGF) (R&D Systems, Minneapolis, Minn.) used as the primary angiogenic stimulus. The mixture (0.5 ml) was injected subcutaneously into the ventral midline of C57B1/6 mice, and treatment with different test samples or saline solution was initiated the same day. Additional animals were also injected with Matrigel™ containing no bFGF to serve as baseline controls. The animals were treated daily for a 10 day period (intra-peritonealy, 0.2 ml of each dose). At day 11, animals were injected with FITC-dextran 20 min prior to euthanizing treated mice. Matrigel™ gels were removed along with underlying peritoneum and prepared for FITC-dextran detection by fluorimetry. The concentration of FITC-dextran in the gels was calculated from a known concentration of FITC-dextran using a standard curve. The FITC-dextran content of the gels from compound-treated animals and controls was expressed as a percent of the positive bFGF-treated controls after the baseline control of FITC-dextran levels were subtracted from all groups.

[4] = Affinity of the amino acid with copper; type: physicochemical

Row | Compound | EC50 [1] [mM] | also measured
1 | L-Asp-Co-L-Asp [Compound 30] | 0.27 | 
2 | L-Asp-Zn-L-Asp [Compound 32] | 0.18 | 
3 | CC(O)C(N)C(=O)[O-].CC(O)C(N)C(=O)[O-].[Cu+2] [Compound 16, D-Thr:Cu:D-Thr] | 0.3 | EVT activity (in words) [2]: active; Endothelial cell proliferation activity (in words) [1]: active
4 | Gly:Cu:L-Thr [Compound 23] | 0.48 | 
5 | N[C@@H](CC(=O)O)C(=O)O [Free Asp, aspartic acid, reference compound] |  | Tubulogenesis (Endothelial cells): 0
6 | L-Glu:Cu:L-Glu [Compound 7] | 0.35 | EVT (% of inhibition) [2]: ++ (++ more than 50% of inhibition); Matrigel in vivo % inhibition ([3]; 1.4 mg/Kg equivalent copper): 42.6%; Matrigel in vivo % inhibition ([3]; 7.0 mg/Kg equivalent copper): 71.2%
7 | N[C@@H](CO)C(=O)[O-].N[C@@H](CO)C(=O)[O-].[Cu+2] [Compound 3, L-Ser:Cu:L-Ser] | 0.34 | Affinity of the AA with Cooper [4]: 15.4; EVT (% of inhibition) [2]: 0 (0 non-active (less than 25% of inhibition)); EVT activity (in words) [2]: inactive
8 | L-Asp:Cu:L-Glu [Compound 26] | 0.25 | 
9 | [Cl-].[Cl-].[Zn+2] [Zn++, reference compound] | 0.19 | 
10 | CC[C@H](C)[C@H](N)C(=O)[O-].CC[C@H](C)[C@H](N)C(=O)[O-].[Cu+2] [Compound 12, L-Ile:Cu:L-IIe] | 0.48 | Affinity of the AA with Cooper [4]: 16.6
11 | L-Ala:Cu:L-Thr [Compound 19] | 0.36 | 
12 | C[C@@H](O)[C@H](N)C(=O)[O-].N[C@@H](CC(=O)O)C(=O)[O-].[Cu+2] [Compound 25, L-Asp:Cu:L-Thr] | 0.29 | 
13 | Gly:Cu:L-Asp [Compound 22] | 0.41 | 
14 | L-AIa:Cu:L-Asp [Compound 21] | 0.32 | 
15 | N=C(N)NCCC[C@H](N)C(=O)[O-].N=C(N)NCCC[C@H](N)C(=O)[O-].[Cu+2] [Compound 8, L-Arg:Cu:L-Arg] | 0.32 | Affinity of the AA with Cooper [4]: 14.9; EVT (% of inhibition) [2]: + (+ between 25-50% of inhibition)
16 | Gly:Cu:L-Glu [Compound 24] | 0.33 | 
17 | C[C@H](N)C(=O)[O-].C[C@H](N)C(=O)[O-].[Cu+2] [Compound 2, L-Ala:Cu:L-Ala] | 0.28 | Affinity of the AA with Cooper [4]: 15.9; EVT (% of inhibition) [2]: ++ (++ more than 50% of inhibition)
